Measured values taken from patent US20190022239A1, “NOVEL BIOMOLECULE CONJUGATES AND USES THEREFOR” (The University of Western Australia, priority 2016, published 2019).

Columns and labels:
[1] = test system: macrophage cell line J774; assay: Bioactivity: J774 macrophages on matrigel attached with TNFα-CSG; format: cell-based; settings: 0.1 mmol on matrigel, 1 to 16 hrs
Description: Bioactivity of TNFα-CSG was assessed in vitro, specifically by incubating macrophage cell, line, J774, on matrigel attached with TNFα-CSG (0.1 mmol).

hepatocellular carcinoma = assay: Immune cell infiltration in hepatocellular carcinoma (FACS); format: in vivo, mice; settings: 2 μg daily i.v. for 5 days, healthy livers
Description: Mice bearing hepatocellular carcinoma at 10 weeks of age were treated with 2 μg TNFα-CSG or control CSG peptide (in 100 μL) by daily intravenous injection for 5 days. The experiment was also conducted on mice with normal, healthy livers, FACS quantification of CD4+ and CD8+ T cells and infiltrating macrophages (CD11b+/CD68+) in whole tumours is shown in FIG. 7. Quantitative analysis of these tumours show at least 3 fold increase in immune cell infiltration compared to CSG-treated tumours (P<0.05).

4T1 tumour = assay: Tumour uptake of Evans blue dye; format: in vivo, mice; settings: 2 μg i.v. for five days; Evans blue 30 min
Description: As a result of the reduced tumour ECM content and increased tumour vessel perfusion (Example 4), the inventors then evaluated the ability of tumours treated with TNFα-CSG to take op various reagents. Mice bearing 4T1 tumour were treated with 2 μg TNFα-CSG or CSG control peptide by intravenous injection for five days. Following this, mice were intravenously injected with 100 μL, of 0.9% Evans blue solution and allowed to circulate for 30 min. Tumours were then harvested and photographed.

insulinoma = assay: Tumour uptake of iron oxide micelles (MRI); format: in vivo, mice; settings: 2 μg dose daily for five days; 6 hr circulation
Description: Reduced tumour ECM and stiffness, as well as improved perfusion was also shown to result in enhanced tumour uptake of a nano-imaging contrast agent. Specifically, insulinoma-bearing mice were treated with 2-10 μg TNFα-CSG or CSG control peptide by intravenous infection daily for five days. Following this, mice were intravenously injected with 100 μL of 1 mM iron oxide (IO) micelles (30 nm diameter). Tumours were harvested after 6 hr circulation and imaged by MRI and microscopic analysts of tissues mounted in 2% agarose. […] This accumulation was confirmed by immunostaining analysis of tissue cross sections using anti-FITC antibody.

Substance: TNFα-CSG: Mature murine TNFα (SEQ ID NO:6) with C-terminal conjugated peptide CSGRRSSKC connected via a GGG linker; recombinant fusion protein
- protease secretion by J774 cells [1]: secretion of MMP-2 and MMP-9
- effect on immune cell infiltration in normal liver (hepatocellular carcinoma): no effect on normal liver
- tumour permeability to Evans blue dye vs control-treated tumours (4T1 tumour): more permeable to Evans blue dye
- accumulation of FITC-labelled IO micelles in tumours (MRI T2* and T2 relaxation) (insulinoma): increased accumulation of FITC-labelled IO micelles
- loss of signal (T2 relaxation time) (insulinoma): significantly lower
